Structures are written as SMILES. Where a name gives a salt, the structure may show the parent alone.

The nature of the assay: Prospective, multinational, multicentre, double-blind, placebo-controlled clinical study in patients with a history of atrial fibrillation or atrial flutter. In kind it is in vivo. Here is the method: The patients had to have a history of atrial fibrillation or flutter and/or could be in normal sinus rhythm or in atrial fibrillation or flutter at inclusion.
The patient recruitment was carried out by taking into account the following inclusion criteria:
Inclusion Criteria: • 1) One of the following risk factors had to be present: • age equal to or above 70, or even above 75, possibly combined with at least one of the risk factors below: • hypertension (taking antihypertensives of at least two different classes), • diabetes, • history of cerebral stroke (transient ischemic event or completed cerebral stroke) or of systemic embolism, • left atrial diameter greater than or equal to 50 mm measured by echocardiography, • left ventricular ejection fraction less than 40%, measured by two-dimensional echography; • 2) availability of an electrocardiogram carried out during the past 6 months in order to document the presence or the history of atrial fibrillation or flutter; • 3) availability of an electrocardiogram carried out during the past 6 months in order to document the presence or absence of normal sinus rhythm.
Treatment was initiated using tablets containing either the placebo or an amount of dronedarone hydrochloride corresponding to 400 mg of dronedarone at a rate of one tablet in the morning during or shortly after breakfast and one tablet in the evening during or shortly after dinner.
The anticipated duration of the treatment was variable according to the time at which each patient was included in the study, and could range from a minimum of 12 months for the last patient included up to a maximum corresponding to the entire duration of the study (12 months+duration of inclusion), i.e. approximately 30 months for the first patients included.
The potassium concentration-modulating effect is clearly documented in the study by virtue of the results of analyses of regular blood samples taken throughout the duration of the study in the context of the monitoring of vital parameters.
The variations in potassium (in mmol/l) between the first and the last administration of the medicament of the study are included in FIG. 1, in which B signifies basal level, D signifies day and M signifies month.
The number of patients with hypokalaemia was compared using Fischer's exact test. Hypokalaemia is defined as a concentration in potassium ion [K+] below 3 mmol/L.

The mark [1] stands for this setting: among 2255 treated patients with a potassium measurement, from randomization until last administration.

As to `CCCCc1oc2ccc(NS(C)(=O)=O)cc2c1C(=O)c1ccc(OCCCN(CCCC)CCCC)cc1` [dronedarone hydrochloride], under setting [1], the “number of patients with hypokalaemia ([K+] below 3 mmol/L)” value is 14 patients and the “proportion of patients with hypokalaemia ([K+] below 3 mmol/L)” value is given as 0.6%.

For `CCCCc1oc2ccc(NS(C)(=O)=O)cc2c1C(=O)c1ccc(OCCCN(CCCC)CCCC)cc1` [dronedarone, 2-n-Butyl-3-[4-(3-di-n-butylaminopropoxy)benzoyl]-5-methylsulphonamidobenzofuran], under “compared to placebo, after the 24th month, 400 mg dronedarone twice daily, p<0.0001”, the “change in blood potassium level (analysis of covariance, taking into account the starting value)” value was “significant difference in favour of dronedarone”. For the same compound, the “reduction in the risk of sudden death” value is reported as 62% (hypertensive patients) and 45.5% (patients who were not hypertensive). Moreover, the “reduction in the risk of sudden death compared with the placebo” value (patients not taking diuretics) was determined as 34% and the “reduction in the risk of sudden death compared with the placebo” value (patients on diuretics) is 70.4%.
